Source: patent publication US10710984B2, “N-[(Pyrimidinylamino)propanyl]-and N-[(Pyridinylamino)-propanyl]arylcarboxamides” (Boehringer Ingelheim International GmbH, priority 2016, dated 2020)

Tests used:
[1] = target: T1, OX2R (Homo sapiens, UniProt O43614); assay: OX2R assay of WO2016/034882, Table 3 (Method B); details: read-out: OX2R IC50 (corresponds to pIC50) (converted)
T1 sequence (O43614 1-444): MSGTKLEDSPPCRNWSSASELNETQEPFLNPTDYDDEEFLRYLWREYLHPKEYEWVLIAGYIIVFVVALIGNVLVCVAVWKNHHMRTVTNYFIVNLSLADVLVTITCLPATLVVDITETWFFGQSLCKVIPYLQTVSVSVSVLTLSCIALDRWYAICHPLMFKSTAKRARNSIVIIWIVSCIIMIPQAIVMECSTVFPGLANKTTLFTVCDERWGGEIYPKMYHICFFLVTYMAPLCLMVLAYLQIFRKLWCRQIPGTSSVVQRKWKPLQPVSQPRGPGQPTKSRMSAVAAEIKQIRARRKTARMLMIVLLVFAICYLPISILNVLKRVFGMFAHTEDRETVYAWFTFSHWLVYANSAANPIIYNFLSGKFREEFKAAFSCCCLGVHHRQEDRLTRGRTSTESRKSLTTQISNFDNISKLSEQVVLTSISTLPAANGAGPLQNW

[2] = target: T2, OX1R (Homo sapiens, UniProt O43613); assay: OX1R assay of WO2016/034882, Table 3 (Method B); details: read-out: OX1R IC50 (corresponds to pIC50) (converted)
T2 sequence (O43613 1-425): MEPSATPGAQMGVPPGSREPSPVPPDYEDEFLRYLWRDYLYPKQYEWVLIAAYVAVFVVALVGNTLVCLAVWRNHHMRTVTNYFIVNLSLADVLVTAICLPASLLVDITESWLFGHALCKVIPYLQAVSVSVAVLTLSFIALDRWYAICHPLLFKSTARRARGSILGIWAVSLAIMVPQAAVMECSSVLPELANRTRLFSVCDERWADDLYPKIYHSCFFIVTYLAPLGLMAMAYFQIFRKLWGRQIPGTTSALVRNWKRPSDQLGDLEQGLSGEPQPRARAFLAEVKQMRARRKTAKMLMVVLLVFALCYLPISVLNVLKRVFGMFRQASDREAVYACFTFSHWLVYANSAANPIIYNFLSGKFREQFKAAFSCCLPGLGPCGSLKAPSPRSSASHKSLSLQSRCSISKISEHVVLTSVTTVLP

[3] = target: T3, human orexin 2 receptor (Homo sapiens, UniProt O43614); assay: Assay B: in vitro testing of OX2R potency, OX2R IP1; assay type: cell-based; details: Table 4a; 0.5 nM Orexin A
T3 construct: CHO-K1 cells stably expressing the full-length human orexin 2 receptor and the aequorin photoprotein; expressed in transfected cells; host or cells: CHO-K1 (CHO-K1/hOx2)
T3 sequence (O43614 1-444): T1 sequence (O43614 1-444)
From the text: Activation of the orexin receptors expressed in cell lines results in an increase in intracellular IP3 concentration. IP1, a downstream metabolite of IP3, accumulates in cells following receptor activation and is stable in the presence of LiCl. Using Homogeneous Time-Resolved Fluorescence technology with Lumi4-Tb cryptate (commercially available from Cisbio Bioassay) and a suitable fluorescence plate reader. […] Chem. Genomics 2009, 3, 22-32. This technique is used to characterize pharmacological modification of the orexin receptors.
B. In Vitro Testing of OX2R Potency: OX2R IP1
IP1 measurements are performed in CHO-K1 cells stably expressing the full-length human orexin 2 receptor and the aequorin photoprotein. Cells are cultivated in Ham's nutrient mixture F12 medium with 10% fetal calf serum, in a 37° C., 95% humidity and 5% CO2 incubator. The CHO-K1/hOx2 cell mass is expanded to larger cell numbers. The cells are obtained as frozen cells in cryo-vials and stored until use at −150° C. The viability of the cells after thawing is >90%. In preparation for the assay, 24 hours before the assay, the cells are thawed at 37° C. and immediately diluted with cell culture medium. After centrifugation, the cell pellet is re-suspended in medium and then distributed into the assay plates with a density of 5000 cells/25 μL per well. The plates are incubated for one hour at room temperature to reduce edge effects before they are incubated for 24 hours at 37° C./5% CO2. Compounds are prepared by a 8-point serial dilution in DMSO and a final dilution step into assay buffer (HBSS with 20 mM HEPES, 0.1% BSA and 50 mM LiCl, pH 7.4) to ensure a final DMSO concentration of 1% in the assay. On the day of the assay, cells in the plate are washed twice with 60 μL assay buffer (20 μL buffer remained in the wells after washing), followed by adding 5 μL per well of compounds diluted in assay buffer. After 15 minutes of incubation at room temperature 5 μL per well of Orexin A peptide (final concentration: 0.5 nM) dissolved in assay buffer is added to the assay plate. The assay plate is incubated for 60 minutes at 37° C. Then 5 μL per well of Anti-IP1-Cryptate Tb solution and 5 μL per well of IP1-d2 dilution are added to all well of the plate and the plate is incubated for a further 60 minutes light protected at room temperature. The emission at 615 nm and 665 nm (Excitation wavelength: 320 nm) are measured using an EnVision reader (PerkinElmer). The ratio between the emission at 665 nm and 615 is calculated by the reader.
8-point four parametric non-linear curve fitting and determination of IC50 values and Hill slopes is performed using a regular analysis software e.g. AssayExplorer (Accelrys). In order to establish an agonist concentration independent parameter, Kb values are calculated using the following equation: IC50/((2+(A/EC50)^n)^1/n−1) (with A=concentration agonist, EC50=EC50 agonist, n=Hill slope agonist) (see P. Leff, I. G. Dougall, Trends Pharmacol. Sci. 1993, 14(4), 110-112).
Kb values from Assay A (OX1R) and Assay B (OX2R) can then provide a selectivity ratio which is independent of the agonist (Orexin A) concentration.

[4] = target: T4, human MDR1 P-gp (Homo sapiens, UniProt P08183); assay: Assay C: efflux in MDCK cells transfected with the human MDR1 gene; assay type: in vitro ADME; details: MDCK-MDR1 cell monolayers, pH 7.4, 37° C., read-out: MDCK efflux ratio (BA/AB)
T4 construct: expressed in transfected cells; host or cells: MDCK (MDCK-MDR1)
Method: C. Assessment of Efflux in Madin-Darby Canine Kidney (MDCK) Cells Transfected with the Human MDR1 Gene
Apparent permeability coefficients (PE) of the compounds across the MDCK-MDR1 cell monolayers are measured (pH 7.4, 37° C.) in apical-to-basal (AB) and basal-to-apical (BA) transport direction. AB permeability (PEAB) represents drug absorption from the blood into the brain and BA permeability (PEBA) drug efflux from the brain back into the blood via both passive permeability as well as active transport mechanisms mediated by efflux and uptake transporters that are expressed on the MDCK-MDR1 cells, predominantly by the overexpressed human MDR1 P-gp. The compounds are assigned to permeability/absorption classes by comparison of the AB permeabilities with the AB permeabilities of reference compounds with known in vitro permeability and oral absorption in the human. Identical or similar permeabilities in both transport directions indicate passive permeation, vectorial permeability points to additional active transport mechanisms. Higher PEBA than PEAB indicates the involvement of active efflux mediated by MDR1 P-gp. Active transport is concentration-dependently saturable.
MDCK-MDR1 cells (1-2×10e5 cells/1 cm2 area) are seeded on filter inserts (Costar transwell polycarbonate or PET filters, 0.4 μm pore size) and cultured (DMEM) for 7 days. Subsequently, the MDR1 expression is boosted by culturing the cells with 5 mM sodium butyrate in full medium for 2 days. Compounds are dissolved in appropriate solvent (like DMSO, 1-20 mM stock solutions). Stock solutions are diluted with HTP-4 buffer (128.13 mM NaCl, 5.36 mM KCl, 1 mM MgSO4, 1.8 mM CaCl2, 4.17 mM NaHCO3, 1.19 mM Na2HPO4×7H2O, 0.41 mM NaH2PO4—H2O, 15 mM HEPES, 20 mM glucose, 0.25% BSA, pH 7.4) to prepare the transport solutions (0.1-300 μM compound, final DMSO<=0.5%). The transport solution (TL) is applied to the apical or basolateral donor side for measuring A-B or B-A permeability (3 filter replicates), respectively. The receiver side contains the same buffer as the donor side. Samples are collected at the start and end of experiment from the donor and at various time intervals for up to 2 hours also from the receiver side for concentration measurement by H PLC-MS/MS or scintillation counting. Sampled receiver volumes are replaced with fresh receiver solution.

[5] = target: T5, human Orexin 1 receptor (Homo sapiens, UniProt O43613); assay: Assay A: in vitro testing of OX1R potency, OX1R IP1; assay type: cell-based; details: Table 4a; 50 nM Orexin A
T5 construct: CHO-K1 cells stably expressing the full-length human Orexin 1 receptor and the aequorin photoprotein; expressed in transfected cells; host or cells: CHO-K1 (CHO-K1/hOx1)
T5 sequence (O43613 1-425): T2 sequence (O43613 1-425)

[6] = Assay D: assessment of log P; assay type: physicochemical
Method: The assay was performed following the description by S. F. Donovan and M. C. Pescatore in J. Chromatogr. A 952 (2002) 47-61.

T4 sequence (P08183 whole entry): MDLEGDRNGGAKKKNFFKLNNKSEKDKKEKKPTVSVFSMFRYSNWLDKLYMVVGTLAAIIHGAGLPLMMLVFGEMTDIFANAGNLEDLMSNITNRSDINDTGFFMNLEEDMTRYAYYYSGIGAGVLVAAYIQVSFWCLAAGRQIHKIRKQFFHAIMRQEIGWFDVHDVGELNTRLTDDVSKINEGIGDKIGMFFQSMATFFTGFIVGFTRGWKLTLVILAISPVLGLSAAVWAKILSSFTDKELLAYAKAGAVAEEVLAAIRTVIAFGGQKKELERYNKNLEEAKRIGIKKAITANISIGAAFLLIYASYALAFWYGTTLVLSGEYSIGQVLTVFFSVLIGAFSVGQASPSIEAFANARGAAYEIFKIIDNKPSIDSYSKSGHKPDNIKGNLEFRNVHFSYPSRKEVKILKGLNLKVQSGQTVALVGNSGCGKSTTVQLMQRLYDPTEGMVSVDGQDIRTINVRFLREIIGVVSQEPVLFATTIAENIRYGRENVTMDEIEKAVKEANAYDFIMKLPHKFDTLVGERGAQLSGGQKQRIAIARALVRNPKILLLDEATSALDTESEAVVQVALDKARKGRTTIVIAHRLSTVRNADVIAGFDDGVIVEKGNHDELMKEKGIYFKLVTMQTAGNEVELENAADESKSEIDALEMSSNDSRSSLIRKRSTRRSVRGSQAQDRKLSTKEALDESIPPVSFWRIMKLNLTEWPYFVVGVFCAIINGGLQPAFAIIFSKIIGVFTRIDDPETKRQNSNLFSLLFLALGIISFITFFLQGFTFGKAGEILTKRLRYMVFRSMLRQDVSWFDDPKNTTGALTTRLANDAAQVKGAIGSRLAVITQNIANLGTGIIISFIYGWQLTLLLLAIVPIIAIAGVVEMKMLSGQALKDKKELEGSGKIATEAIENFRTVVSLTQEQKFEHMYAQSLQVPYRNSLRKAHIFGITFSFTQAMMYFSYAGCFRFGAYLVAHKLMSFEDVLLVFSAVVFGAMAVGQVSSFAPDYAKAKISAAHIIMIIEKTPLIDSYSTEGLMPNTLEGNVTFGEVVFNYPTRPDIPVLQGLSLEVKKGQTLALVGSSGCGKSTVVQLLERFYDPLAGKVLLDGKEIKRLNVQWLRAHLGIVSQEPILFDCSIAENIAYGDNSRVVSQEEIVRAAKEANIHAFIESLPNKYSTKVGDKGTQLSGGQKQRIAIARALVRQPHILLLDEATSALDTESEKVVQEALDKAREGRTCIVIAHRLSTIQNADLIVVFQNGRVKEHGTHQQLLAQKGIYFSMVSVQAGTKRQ

SMILES | IC50 [1] [nM] | IC50 [2] [nM] | Kb [3] [nM] | efflux ratio [4] | Kb [5] [nM] | chromatographic logP [6]
CC[C@@H](CNc1ccc(C(F)(F)F)cn1)N(CC)C(=O)c1nc(C)ccc1-n1nccn1 [drawing 9] | 320 |  |  |  |  | 
CC[C@@H](CNc1ncc(C(F)(F)F)cn1)N(C)C(=O)c1c(F)cccc1-n1nccn1 [drawing 12] | ≥ 7950 |  |  |  |  | 
CC[C@@H](CNc1ncc(C(F)(F)F)cn1)N(C)C(=O)c1nc(C)ccc1-c1ncccn1 [drawing 11] |  | 1.9 |  |  |  | 
CCN(C(=O)c1cc(C)ccc1-n1nccn1)[C@@H](C)CNc1ncc(C(F)(F)F)cn1 [Example 2] |  |  | 4.14 | < 3 | 0.011 | 2 to 4
CCN(C(=O)c1cccc(F)c1-n1nccn1)[C@@H](C)CNc1ncc(C(F)(F)F)cc1F [Example 16] |  |  | 7.6 | < 3 | 0.014 | 2 to 4
CCN(C(=O)c1ccc(Cl)cc1-n1nccn1)[C@@H](C)CNc1ncc(C(F)(F)F)cn1 [Example 7] |  |  | 23.2 | < 3 | 0.025 | 2 to 4
